Publication PMC8805605, “Discovery of Dimeric Arylsulfonamides as Potent ADAM8 Inhibitors” (ACS Medicinal Chemistry Letters, 2021)

Test system: MDA-MB-231 cells
Assay: Matrigel invasion assay
Assay type: cell-based
Settings: MDA-MB-231 cells pretreated with inhibitors for 24 h; control 69.07 ± 5.26%
Protocol: Figure 5 Effects of compounds 1–3 and JG26 on cancer cell invasion. MDA-MB-231 cells were pretreated with inhibitors for 24 h prior to the assay. Boxplot of invaded cells in %. Results are obtained from three independent experiments with counting of five randomly chosen viewing fields. One-way ANOVA was performed to determine statistical significance with * p < 0.05 and *** p < 0.001. […]
Thincerts of […] pore size, translucent (Greiner BioOne) were transferred into 24-well plates. Each insert was loaded with 75 µL Matrigel (BD Biosciences), 1:1 diluted with serum-free medium DMEM.
After 1 hour, thincerts were turned upside down and 25000 MDA-MB-231 cells, pretreated with vehicle (DMSO) or 20 µM inhibitors (JG26 and compounds 1-3 in DMSO) for 24 hours in DMEM/0.5 % FCS were seeded on the lower side and incubated for 3-4 hours so that cell can adhere to the membrane. To induce cell invasion, DMEM/20% FCS was applied to the upper chamber in order to […]
form a concentration gradient. After 18 hours, cells were fixed with 3.7 % paraformaldehyde and stained with 4’,6-Diamidin-2-phenylindol (DAPI) to detect cell nuclei. Quantification of cell invasion was performed using a confocal microscope by stacked imaging. Cell nuclei present in the upper and the lower chamber were counted in 5 randomly chosen viewing fields and the amount of invasion was calculated in percent as the ratio between invaded cells/non-invaded cells x 100. Experiments were repeated 3 times, counting 5 random viewing fields per well, respectively.
Protein extraction and Western Blot analysis
After 48 h, total protein extraction was performed by detaching the cells with a cell scraper. Cells were washed with PBS, resuspended in 50 μL RIPA (50 mM HEPES pH 7.4; 150 mM NaCl; 1% (v/v) NP-40; 0.5% (w/v) Natriumdeoxycholate; 0.1% (w/v) SDS; 10 mM Phenantrolin; 10 mM EDTA; PierceTM Protease Inhibitor Mini Tablets, EDTA-free, Thermo Scientific; PierceTM Phosphatase Inhibitor Mini Tablets, Thermo Scientific) and incubated for 30 min on ice. […]
2% (w/v) SDS; 10% (w/v) Glycerol; 5% (v/v) ß-Mercaptoethanol; 0.01% (w/v) Bromphenol-Blue) for 5 min. The proteins were separated by 10% SDS-PAGE and subsequently transferred on a nitrocellulose membrane (GE Healthcare). The membrane was then blocked with 5% (w/v) milk powder (MP) in TBST (50 mM Tris, pH 7.5; 150 mM NaCl; 0.1% (w/v) Tween-20) for 1 h and probed with the following primary antibodies: anti-beta Tubulin (NB600-936, Novus Biological, 1:2000), anti- […]
Cell Signaling, 1:2000) and anti-pAkt (4060, Cell Signaling, 1:2000) at 4°C overnight. After washing the 3x with TBST, the membrane was incubated with horseradish peroxidase-conjugated secondary antibodies for 1 h (abcam, 1:5000) followed by a repeated washing step. […]

O=C(NCCC[C@@H](NS(=O)(=O)c1ccc(OCc2cc(Br)cc(Br)c2)cc1)C(=O)NO)NCCC[C@@H](NS(=O)(=O)c1ccc(OCc2cc(Br)cc(Br)c2)cc1)C(=O)NO [Compound 3]
Invaded cells: 52.9 ± 9.14%

NC(=O)NCCC[C@@H](NS(=O)(=O)c1ccc(OCc2cc(Br)cc(Br)c2)cc1)C(=O)NO [JG26, reference compound]
Invaded cells: 59.87 ± 12.27%

O=C(NCCC[C@@H](NS(=O)(=O)c1ccc(OCc2cc(Br)cc(Br)c2)cc1)C(=O)NO)c1cccc(C(=O)NCCC[C@@H](NS(=O)(=O)c2ccc(OCc3cc(Br)cc(Br)c3)cc2)C(=O)NO)c1 [Compound 2]
Invaded cells: 50.8 ± 11.4%

O=C(CCCNC(=O)c1cccc(C(=O)NCCCC(=O)NCCC[C@@H](NS(=O)(=O)c2ccc(OCc3cc(Br)cc(Br)c3)cc2)C(=O)NO)c1)NCCC[C@@H](NS(=O)(=O)c1ccc(OCc2cc(Br)cc(Br)c2)cc1)C(=O)NO [Compound 1]
Invaded cells: 57.25 ± 7.24%
